Data: patent US20230310388A1, “Methods and Compositions for Treating Fungal Infections” (Neoculi Pty Ltd, priority 2020, published 2023)
Values joined by “and” are separate entries in the source; they are usually repeats but may differ in a detail not shown here. Equal values may be shown once.

Legend:
Candida albicans [1] = assay: CLSI broth microdilution MIC (Example 3); format: cell-based
Method: (§1) Antifungal minimum inhibitory concentration (MIC) testing was undertaken as recommended by the CLSI. Briefly, antifungal susceptibility tests were performed for amphotericin B, robenidine (NCL812) and 5 robenidine analogs (NCL062, NCL195, NCL219, NCL259, NCL265) by standard broth microdilution method (CLSI) in RPMI 1640. Various concentrations (ranging from high to low) of the selected compounds were prepared in RPMI 1640 medium by double dilution in 96-well microtitre plates. Each well contained an inoculum of approximately 2×10^3 cells/mL. The wells without addition of drugs served as negative (no inoculum) and positive (inoculum only) growth controls. Microtitre plates were incubated at 35° C. for 24-48 hours. […] Antifungal MICs were determined for each isolate in duplicate; if the values obtained were different, the MIC test was repeated a third time. Antifungal susceptibility tests were performed for amphotericin B and NCL analogs by standard broth microdilution method (CLSI). Briefly, various concentrations (ranging from high to low) of the selected compounds were prepared in RPMI 1640 medium by double dilution in the 96-well plates. Each well contained an inoculum of approximately 2×10^3 cells/mL. The wells without addition of drugs served as a negative control. Micro plates were incubated at 35° C. for 48 hour and read spectrophotometrically at 600 nm, using a microplate reader (Multiskan-EX; Thermo Elect. Corp., USA).

Candida parapsilosis = assay: CLSI broth microdilution MIC (Example 3); format: cell-based; settings: Candida parapsilosis ATCC 22019
Method: as §1

Candida albicans [2] = assay: CLSI broth microdilution MIC (Example 4); format: cell-based; settings: for antifungal activity against the two isolates of Candida albicans: summary in words
In short: (§2)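 CLSI broth microdilution in RPMI 1640 with two-fold compound dilutions and inoculum about 2×10^3 cells/mL. Plates incubated 35° C for 24-48 hours; MICs determined in duplicate, with a third test when the duplicates differed.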

Cryptococcus neoformans [3] = assay: CLSI broth microdilution MIC (Example 4); format: cell-based
In short: as §2

Candida albicans [4] = assay: CLSI broth microdilution MIC (Example 5); format: cell-based; settings: for activity against one or more isolates of Cryptococcus neoformans and Candida albicans: summary in words
In short: (§3)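 Broth microdilution per CLSI in RPMI 1640 with twofold compound dilutions, inoculum about 2×10^3 cells/mL. Plates incubated at 35° C for 24-48 hours. MIC determined per isolate in duplicate, with a third repeat when the two values differed.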

Cryptococcus neoformans [5] = assay: CLSI broth microdilution MIC (Example 5); format: cell-based
In short: as §3

Candida albicans [6] = assay: CLSI broth microdilution MIC (Example 6); format: cell-based
In short: (§4)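 CLSI broth microdilution in RPMI 1640, compounds serially double-diluted, inoculum about 2×10^3 cells/mL. Incubation at 35° C for 24-48 hours. MICs determined per isolate in duplicate, with a third repeat if values differed.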

Cryptococcus neoformans [7] = assay: CLSI broth microdilution MIC (Example 6); format: cell-based
In short: as §4

C. gattii = assay: CLSI broth microdilution MIC (Example 6); format: cell-based, Cryptococcus gattii
In short: as §4

[8] = tested on: Candida albicans ATCC14053; assay: Broth micro-dilution screen at 16 μg/mL and MIC (Example 9); format: cell-based; settings: for MIC: C. albicans ATCC14053, test range 0.25-64 μg/mL, duplicate; for Screen at 16 μg/mL: single concentration 16 μg/mL, Growth or No growth of C. albicans ATCC14053
Method: The antifungal activity of 201 NCL analogs against Candida albicans ATCC14053 in vitro was investigated. A broth micro-dilution method was used, according to CLSI guidelines as described. NCL analogs were dissolved in DMSO and originally screened at a single concentration of 16 μg/mL.

C. albicans = assay: Fluconazole MIC given as descriptor of azole resistant clinical isolates (Table 10); format: cell-based; settings: Candida albicans
[9] = Candida albicans ATCC 90028, 1st
[10] = Candida albicans ATCC 90028, 2nd
[11] = clinical isolate C. albicans 12-93301752 Azole Resistant
[12] = clinical isolate C. albicans 14-90045999 Azole Resistant
[13] = clinical isolate C. albicans 15-45171061
[14] = clinical isolate C. albicans 15-91329871
[15] = clinical isolate C. albicans 16-24136919 Azole Resistant
[16] = clinical isolate C. albicans 16-46177400
[17] = clinical isolate C. albicans 16-90050810
[18] = clinical isolate C. albicans 16-90054237
[19] = clinical isolate C. albicans 18-144-00196
[20] = clinical isolate C. albicans 18-148-08188 Azole Resistant
[21] = human clinical isolate C. neoformans serotype A/D hybrid
[22] = human clinical isolate C. neoformans var grubii 16-90050434
[23] = human clinical isolate C. neoformans var grubii 17-90028233
[24] = human clinical isolate C. neoformans var grubii 17-93996464
[25] = human clinical isolate C. neoformans var grubii 17-93996964
[26] = human clinical isolate C. gatti 17-90232099
[27] = human clinical isolate C. gattii 16-90050373
[28] = human clinical isolate C. gattii 17-90028211
[29] = human clinical isolate C. gattii 17-90028217
[30] = human clinical isolate C. gattii 17-90028242

[H]/N=C(\N)NN=C(CC1CCCCC1)c1ccc(Cl)cc1 [NCL259]
>16 µg/mL: MIC (Candida albicans [4]; [12]) | MIC (Candida albicans [4]; [14]) | MIC (Candida albicans [4]; [16]) | MIC (Candida albicans [4]; [17]) | MIC (Candida albicans [4]; [19]) | MIC (Candida albicans [4]; [20])
2 µg/mL: MIC at 24-48 hours (Cryptococcus neoformans [3]; Cryptococcus neoformans SA1) | MIC at 24-48 hours (Cryptococcus neoformans [3]; Cryptococcus neoformans SA2) | MIC (Cryptococcus neoformans [5]; Cryptococcus neoformans SA1) | MIC (Cryptococcus neoformans [5]; Cryptococcus neoformans SA2) | MIC (Cryptococcus neoformans [7]; Cryptococcus neoformans SA1) | MIC (Cryptococcus neoformans [7]; Cryptococcus neoformans SA2)
No growth: Screen at 16 μg/mL [8]
4 µg/mL: MIC (Candida albicans [1]; [9]) | MIC (Candida albicans [1]; Candida albicans, 1st) | MIC (Candida albicans [1]; Candida albicans, 2nd) | MIC (Candida parapsilosis; 1st) | MIC (Candida parapsilosis; 2nd)
8 µg/mL and 16 µg/mL: MIC (Cryptococcus neoformans [7]; [24]) | MIC (C. gattii; [29]) | MIC [8]
highly active: activity against one or more isolates of Cryptococcus neoformans and Candida albicans (Candida albicans [4])
32 µg/mL: MIC (Candida albicans [4]; [18])
16 µg/mL: MIC at 24-48 hours (Candida albicans [2]; Candida albicans ATCC 90028) | MIC at 24-48 hours (Candida albicans [2]; Candida albicans SA3) | MIC (Candida albicans [4]; C. albicans SA3) | MIC (Candida albicans [4]; Candida albicans ATCC 90028) | MIC (Candida albicans [4]; [11]) | MIC (Candida albicans [6]; C. albicans SA3) | MIC (Candida albicans [6]; Candida albicans ATCC 90028)
8 µg/mL: MIC (Candida albicans [1]; [10]) | MIC (Candida albicans [4]; [13]) | MIC (Candida albicans [4]; [15]) | MIC (Cryptococcus neoformans [7]; [21]) | MIC (Cryptococcus neoformans [7]; [22]) | MIC (Cryptococcus neoformans [7]; [23]) | MIC (Cryptococcus neoformans [7]; [25]) | MIC (C. gattii; [26]) | MIC (C. gattii; [27]) | MIC (C. gattii; [28]) | MIC (C. gattii; [30])
high antifungal activity: antifungal activity against the two isolates of Candida albicans (Candida albicans [2])

OC(Cn1cncn1)(Cn1cncn1)c1ccc(F)cc1F [Fluconazole]
64 µg/mL: MIC (C. albicans; C. albicans 14-90045999 Azole Resistant)
8 µg/mL: MIC (C. albicans; C. albicans 18-148-08188 Azole Resistant)
32 µg/mL: MIC (C. albicans; C. albicans 12-93301752 Azole Resistant)
256 µg/mL: MIC (C. albicans; C. albicans 16-24136919 Azole Resistant)

[H]/N=C(\N)NN=C(CCCCCC)c1ccc(Cl)cc1 [NCL265]
2 µg/mL: MIC (Candida albicans [1]; [9]) | MIC (Candida albicans [1]; [10]) | MIC (Candida albicans [1]; Candida albicans, 1st) | MIC (Candida parapsilosis; 1st) | MIC (Candida parapsilosis; 2nd) | MIC (Candida albicans [4]; [11]) | MIC [8]
4 µg/mL: MIC (Candida albicans [1]; Candida albicans, 2nd) | MIC (Candida albicans [4]; [15]) | MIC (Cryptococcus neoformans [7]; [22]) | MIC (C. gattii; [29])
high antifungal activity: antifungal activity against the two isolates of Candida albicans (Candida albicans [2])
16 µg/mL: MIC (Candida albicans [4]; [12]) | MIC (Candida albicans [4]; [14]) | MIC (Candida albicans [4]; [16]) | MIC (Candida albicans [4]; [17]) | MIC (Candida albicans [4]; [18]) | MIC (Candida albicans [4]; [20])
highly active: activity against one or more isolates of Cryptococcus neoformans and Candida albicans (Candida albicans [4])
No growth: Screen at 16 μg/mL [8]
8 µg/mL and 16 µg/mL: MIC (C. gattii; [28])
1 µg/mL: MIC at 24-48 hours (Cryptococcus neoformans [3]; Cryptococcus neoformans SA1) | MIC at 24-48 hours (Cryptococcus neoformans [3]; Cryptococcus neoformans SA2) | MIC (Cryptococcus neoformans [5]; Cryptococcus neoformans SA1) | MIC (Cryptococcus neoformans [5]; Cryptococcus neoformans SA2) | MIC (Cryptococcus neoformans [7]; Cryptococcus neoformans SA1) | MIC (Cryptococcus neoformans [7]; Cryptococcus neoformans SA2)
>16 µg/mL: MIC (Candida albicans [4]; [19])
8 µg/mL: MIC at 24-48 hours (Candida albicans [2]; Candida albicans ATCC 90028) | MIC at 24-48 hours (Candida albicans [2]; Candida albicans SA3) | MIC (Candida albicans [4]; C. albicans SA3) | MIC (Candida albicans [4]; Candida albicans ATCC 90028) | MIC (Candida albicans [4]; [13]) | MIC (Candida albicans [6]; C. albicans SA3) | MIC (Candida albicans [6]; Candida albicans ATCC 90028) | MIC (Cryptococcus neoformans [7]; [21]) | MIC (Cryptococcus neoformans [7]; [23]) | MIC (Cryptococcus neoformans [7]; [24]) | MIC (Cryptococcus neoformans [7]; [25]) | MIC (C. gattii; [26]) | MIC (C. gattii; [27]) | MIC (C. gattii; [30])
